Experimental findings from patent US12305217B2, “Ex vivo protease activity detection for disease detection/diagnostic, staging, monitoring and treatment” (Sunbird Bio, Inc., priority 2020, dated 2025) are described below.

Test [1] has as its system cathepsin and/or MMP protease activities. Kind of test: Ex vivo probe cleavage in plasma of healthy, NASH regression and NASH progression mice. The test is classed as biochemical. The conditions noted are these: K2EDTA plasma collected at 20 weeks. The text has this: Plasma samples were collected from all animals at 20 weeks.
The probes showing the most differentiation in NASH were linked to cathepsin and/or MMP protease activities.

In test [2] the test system is NASH-related protease activity in K2EDTA plasma (cathepsin L). Kind of test: Inhibitor profiling of Probe #102 cleavage in healthy and NASH plasma. The test is classed as biochemical, mice. The conditions noted are these: for effect of inhibitor on Probe #102 signal: NASH and healthy plasma. The procedure: For this experiment, all plasma samples were prepared individually and diluted 1/10e in PBS with inhibitor added directly to the samples. Inhibitor was prepared at 15× concentration to final. Substrates were diluted in DI water at 18 uM, such that the final concentration on the plate would be 6 uM. All samples were prepared such that their last dilution on the plate would not affect the desired final concentration. 10 ul of each individual sample was pipetted into their corresponding wells, and the plate was then spun down in the centrifuge at 1500 RPM for 30 seconds to coat the bottom of each well with the sample. 5 ul of the 18 uM substrate solution was pipetted into each well being used on a 384 well plate, and then the plate was spun down in the centrifuge at 1500 rpm for 30 seconds. The plate was placed immediately in the plate reader at 37° C. for a 30-minute-long fluorescence kinetic read at 485/535 extended gain.
To assess the proteolytic cleavage pattern of Probe #102, samples were tested using a pool of broad inhibitors for serine, cysteine, threonine, MMP and aspartic protease family members (broad inhibitor) to assess general protease activity, AEBSF for serine proteases, E64 for cysteine proteases, CTSi for broad cathepsin inhibition of cathepsins L, S, K and B, or specific inhibitors for cathepsin K (L00625), for cathepsin L (SID) or cathepsin B (CA074).

Test [3] concerns proteases in mouse plasma (caspase activity). The test is described as follows: Ex vivo probe cleavage in plasma of Jo2 fulminant hepatitis mice. The test is classed as biochemical. Conditions: mouse plasma 3 hours after Jo2 injection. The procedure: Fulminant hepatitis is induced after injection intraperitoneal of monoclonal antibody anti-CD95 (Jo2, BD biosciences, 4 ug/animal), and mouse plasma samples were collected 3 hours after Jo2 injection.

Test [4] has as its system COVID-related proteases in swab samples. The test is described as follows: Ex vivo probe cleavage in COVID positive and negative swab samples. The format is biochemical.
The target in a further test is Granzyme B (Homo sapiens, UniProt P10144). Kind of test: Inhibition experiments on Probe #647 signal in COVID swab samples. Conditions: healthy and COVID samples.
Test [5] relates to proteases in COVID plasma. The test is described as follows: Ex vivo probe cleavage in COVID and healthy K2EDTA and Lithium Heparin plasma. The test is classed as biochemical.
Test [6] has as its system carboxylesterase 1, phospholipase A2 and lipoprotein lipase. The test is described as follows: Spiked recombinant enzymes in human plasma with resorufin oleate as substrate. The format is biochemical.
The mark [7] stands for this setting: K2EDTA and Lithium Heparin plasma.

Square brackets hold non-standard residues; d marks the D form. Primed or numbered codes have the meaning given here. Ends that are not written are not given here. CPQ2″ = quencher on the Lys side chain; FAM = fluorescent reporter; PEG2′ = not defined here; CPQ2 = quencher

Granzyme B, sequence (P10144 21-247): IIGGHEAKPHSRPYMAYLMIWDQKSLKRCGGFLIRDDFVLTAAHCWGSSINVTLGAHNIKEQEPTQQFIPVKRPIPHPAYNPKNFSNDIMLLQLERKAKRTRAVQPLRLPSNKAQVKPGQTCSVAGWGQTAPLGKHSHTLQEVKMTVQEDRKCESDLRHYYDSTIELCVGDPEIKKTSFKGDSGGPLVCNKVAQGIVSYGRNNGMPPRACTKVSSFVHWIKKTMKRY

For “Probe #428: probe used in NASH regression experiment (chain 1 {FAM}-GDRRKKLTQGK(CPQ2″)[PEG2′]; chain 2 [dK][dK]GC; not fully specified; printed as (FAM)-GDRRKKLTQG-K(CPQ2)-(PEG2)-; also: FAM, place not given here)”, the “differentiation among healthy, regression and NASH samples” value (shortened to “differentiation among healthy”) in test [1] is listed as “can differentiate”. For the compound `NCCc1ccc(S(=O)(=O)F)cc1` [AEBSF], the “decrease of NASH signal” value in test [2] (Probe #102, 6 uM, NASH plasma) was 65%. For the same compound, in test [2] (Probe #102, 6 uM, healthy plasma), the “decrease of healthy signal” value is listed as 60%. Take “Probe #647: Caspase centric probe; signal measures Granzyme B activity (chain 1 GAIEPDSGGK(CPQ2); chain 2 [dK][dK]GC-NH2; not fully specified (N-terminus, C-terminus); also: 5FAM, PEG2, linkage of the two chains not given here)”: the “differentiation between healthy and Jo2 samples” value in test [3] was “show contrast that is specific and sensitive to the Jo2 model”. For the same compound, the “number of active samples” value is recorded as 7 in test [4] (COVID+ swab samples) and 1 in test [4] (COVID- swab samples). The “difference between COVID+ and COVID- samples” value in test [4] (swabs in saline, p=0.029) was “significant differences”. In the test with Granzyme B, the “protease measured by the probe signal” value is reported as “measures the activity of protease Granzyme B”. In test [1], the “differentiation among healthy” value was “can differentiate”. Regarding “Probe #84: Furin substrate (GRVKRGLAGK(CPQ2); not fully specified (N-terminus, C-terminus); also: 5-FAM, PEG2-kk-GC)”, the “differential cleavage between COVID and healthy samples” value in test [5] (setting [7]) was “demonstrated contrast in both sets”. On the same count and under the same terms, to “Probe #18: Neutrophil elastase substrate (GAAPVGK(CPQ2); not fully specified (N-terminus, C-terminus); also: 5-FAM, PEG2-kk-GC)” belongs “demonstrated contrast in both sets”. Regarding “Probe #492: ex vivo fluorescent probe used in NASH mouse plasma (chain 1 {FAM}-GQRANSIRVTWGK(CPQ2″)[PEG2′]; chain 2 [dK][dK]GC; not fully specified; printed as (FAM)-GQRANSIRVTWG-K(CPQ2)-(PEG2)-; also: FAM, place not given here)”, in test [1], the “differentiation among healthy” value is listed as “can differentiate”. With “Probe #409: SARS CoV2 coronavirus substrate (SARS-COV2 3C protease) (GTSAVLQSGFRKGK(CPQ2); not fully specified (N-terminus, C-terminus); also: 5-FAM, PEG2-kk-GC)”, the “differential cleavage between COVID and healthy samples” value in test [5] (K2 EDTA samples) was “modest contrast”. Regarding `CCCC(=O)O` [butyrate], the “suitability as substrate for enzyme detection” value in test [6] is “promising for detection of broad range of enzymes”. For the compound “Probe #8: Caspase centric probe (chain 1 GVDVADGK; chain 2 KKGC; not fully specified; 5-FAM, CPQ2 quencher, PEG2; Description of Artificial Sequence: Synthetic probe; SITE 8 Lysine modified with a CPQ2 quencher; SITE 1 D-Lysine; SITE 2 D-Lysine)”, in test [3], the “differentiation between healthy and Jo2 samples” value is “show contrast that is specific and sensitive to the Jo2 model”.

Consider `CN1CCN(c2nc(-c3ccc(C(=O)NC4(C(=O)NCC#N)CCCCC4)cc3)cs2)CC1` [Probe L006235], for which, in test [2], the “effect of inhibitor on Probe #102 signal” value was “did not significantly decrease signal”. For Resorufin oleate, in test [6], the “suitability as substrate for enzyme detection” value is on record as “promising for detection of broad range of enzymes”.

“Probe #12: Caspase centric probe (chain 1 GDEVDGK; chain 2 KKGC; not fully specified; 5-FAM, CPQ2 quencher, PEG2; Description of Artificial Sequence: Synthetic probe; SITE 7 Lysine modified with a CPQ2 quencher; SITE 1 D-Lysine; SITE 2 D-Lysine)”: the “differentiation between healthy and Jo2 samples” value in test [3] is “show contrast that is specific and sensitive to the Jo2 model”. For the compound “Probe #462: MMP8 substrate (GKKAKRNALGK(CPQ2); not fully specified (N-terminus, C-terminus); also: FAM, PEG2-DLys-DLys-GC)”, the “differential cleavage between COVID and healthy samples” value in test [5] (setting [7]) is “demonstrated contrast in both sets”. On to “Probe #102: a CTSL sensing probe; fluorescent reporter and quencher peptide probe (chain 1 {FAM}-GKPILFFRLKGK(CPQ2″)[PEG2′]; chain 2 [dK][dK]GC; not fully specified; printed as (FAM)-GKPILFFRLKG-K(CPQ2)-PEG2-kk-GC; also: FAM, place not given here)”, for which the “protease that the probe responds to” value in test [2] (individual cathepsin inhibitors, FIG. 30D-F) is “specifically responds to the activity of cathepsin L (CTSL)”. The “differentiation among healthy” value in test [1] was “can differentiate”. On to `CC(C)C[C@H](NC(=O)[C@H]1O[C@@H]1C(=O)O)C(=O)NCCCCN=C(N)N` [Probe E64], for which the “effect of inhibitor on Probe #102 signal” value in test [2] is reported as “decreased NASH signal significantly”.

On to `CCCNC(=O)[C@H]1O[C@@H]1C(=O)N[C@H](C(=O)N1CCC[C@H]1C(=O)O)[C@@H](C)CC` [CA074], for which, in test [2], the “effect of inhibitor on Probe #102 signal” value is given as “did not significantly decrease signal”.
